Measurements published in patent US11643421B2, “Process for the preparation of tricyclic PI3K inhibitor compounds and methods for using the same for the treatment of cancer” (priority 2015, dated 2023).

What was measured:
[1] = Plasma protein binding (PPB %); type: in vitro ADME, cynomolgus monkeys; details: cynomolgus monkey
Method: The hepatocyte stability of compound IIIat was evaluated across preclinical species. Certain in vivo pharmacokinetic parameters were also evaluated. […] Male Sprague-Dawley rats, female CD-1 mice, male cynomolgus monkeys and beagle dogs were dosed intravenously with 1 mg/kg of compound IIIat prepared in 60% PEG400/10% Ethanol. Compound IIIat was administered orally (PO) at the indicated dose in 0.5% methylcellulose with 0.2% Tween 80 (MCT).

[2] = Phase I dose-escalation study, maximum tolerable dose; details: orally once daily in cycles of 28 days
Method: Plasma samples for pharmacokinetic (“PK”) analysis were collected on day 1 and day 8 or day 15 of cycle 1. Fluorodeoxyglucose positron emission tomography (“FDG-PET”) was performed at baseline and on-treatment.

high-grade gliomas [3] = assay: Phase I study, FDG-PET tumor response; type: in vivo, human; details: 27 patients who underwent FDG-PET imaging
Excerpt: The outcome measure for this objective was based on the maximum standard uptake value (SUVmax) of up to five lesions. The tumor regions of interest (ROIs) were identified for each patient on pretreatment PET imaging and corresponded to a subset of the target lesions used for analysis of the patient's pretreatment tumor assessment scans. […] Specifically, the SUVmax of each ROI on the on-treatment scans was compared with its SUVmax on the corresponding pretreatment scan and the percent change was determined. In the event of more than one ROI, the overall percent change in SUVmax was the arithmetic mean of the percent changes in SUVmax for each of the ROIs (mSUVmax). PET response is defined as follows. Progressive disease (PET-PD): percent increase of >20% in mSUVmax or the development of a new lesion with an SUVmax above background and not explained by another cause (e.g., infection). Stable disease (PET-SD): percent increase of ≤20% in mSUVmax or a percent decrease of ≤20% in mSUVmax. Partial response (PET-PR): percent decrease of >20% in mSUVmax. […]
Reduction in ^18F-FDG uptake measured by PET is indicative of reduced glucose metabolism activity, a likely PD response of PI3K pathway inhibition.

high-grade gliomas [4] = assay: Phase I study, best overall response (RANO); type: in vivo, human; details: evaluable patients
Method: Tumor response was determined by either an assessment of FDG-PET or by Response Assessment in Neuro-Oncology (RANO).
Tumor response under the RANO guidelines was done generally in accordance with the Wen method (Wen P Y, Macdonald D R, Reardon D A, et al. “Updated response assessment criteria for high-grade gliomas: Response Assessment in Neuro-Oncology Working Group”, J Clin Oncol 2010; 28:1963-72) where the disease is categorized as “complete response”, “partial response”, “stable disease” and “progression”. Among other factors, a complete response required all of the following: complete disappearance of all enhancing measurable and non-measurable disease sustained for at least 4 weeks; no new lesions; and stable or improved non-enhancing (T2/FLAIR) lesions. A partial response required, among other factors, ≥50% decrease, compared with baseline, in the sum of the products of the perpendicular diameters of all measurable enhancing lesions (such as measured by MRI) sustained for at least 4 weeks; no progression of non-measurable disease; and no new lesions.

[5] = Solubility in mono- and ternary-solvent systems; type: physicochemical; details: 50° C.
CDK9/cyclinT1 = CDK9/cyclinT1 (Homo sapiens, UniProt P50750); assay: biochemical; details: read-out: % inhib
Sequence of CDK9/cyclinT1 (P50750 whole entry, species assumed): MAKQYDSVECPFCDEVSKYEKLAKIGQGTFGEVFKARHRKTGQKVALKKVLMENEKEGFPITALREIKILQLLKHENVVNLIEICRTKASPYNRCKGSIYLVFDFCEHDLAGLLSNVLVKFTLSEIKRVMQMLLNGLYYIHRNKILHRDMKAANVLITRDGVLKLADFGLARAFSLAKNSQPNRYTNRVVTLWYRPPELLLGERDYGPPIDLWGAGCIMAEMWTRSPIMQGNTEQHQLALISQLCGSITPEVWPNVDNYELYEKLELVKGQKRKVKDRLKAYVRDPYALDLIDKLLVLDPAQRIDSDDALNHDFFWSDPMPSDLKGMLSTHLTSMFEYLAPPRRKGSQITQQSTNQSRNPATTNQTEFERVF
Sequence of CDK9/cyclinT1 (O60563 whole entry partner, species assumed): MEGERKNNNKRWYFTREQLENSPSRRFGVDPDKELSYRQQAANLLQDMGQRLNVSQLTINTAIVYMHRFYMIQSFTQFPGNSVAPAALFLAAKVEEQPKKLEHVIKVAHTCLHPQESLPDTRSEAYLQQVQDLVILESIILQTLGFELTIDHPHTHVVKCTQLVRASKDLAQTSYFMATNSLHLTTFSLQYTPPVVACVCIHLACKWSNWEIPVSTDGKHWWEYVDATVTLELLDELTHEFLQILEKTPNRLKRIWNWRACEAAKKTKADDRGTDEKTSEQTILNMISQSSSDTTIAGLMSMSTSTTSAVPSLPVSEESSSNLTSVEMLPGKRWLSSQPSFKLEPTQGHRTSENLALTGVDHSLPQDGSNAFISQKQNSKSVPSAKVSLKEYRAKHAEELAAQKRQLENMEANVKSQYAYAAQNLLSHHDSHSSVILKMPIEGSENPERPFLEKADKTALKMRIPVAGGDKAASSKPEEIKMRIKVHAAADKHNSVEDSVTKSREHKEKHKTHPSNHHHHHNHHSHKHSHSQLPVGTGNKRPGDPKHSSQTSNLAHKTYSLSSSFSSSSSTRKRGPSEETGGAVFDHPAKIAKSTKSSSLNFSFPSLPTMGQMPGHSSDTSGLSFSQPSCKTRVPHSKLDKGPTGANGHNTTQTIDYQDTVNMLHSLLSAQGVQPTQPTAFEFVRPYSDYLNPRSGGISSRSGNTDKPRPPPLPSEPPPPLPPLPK

CLK3 = CLK3 (Homo sapiens, UniProt P49761); assay: biochemical; details: read-out: % inhib
Sequence of CLK3 (P49761 whole entry, species assumed): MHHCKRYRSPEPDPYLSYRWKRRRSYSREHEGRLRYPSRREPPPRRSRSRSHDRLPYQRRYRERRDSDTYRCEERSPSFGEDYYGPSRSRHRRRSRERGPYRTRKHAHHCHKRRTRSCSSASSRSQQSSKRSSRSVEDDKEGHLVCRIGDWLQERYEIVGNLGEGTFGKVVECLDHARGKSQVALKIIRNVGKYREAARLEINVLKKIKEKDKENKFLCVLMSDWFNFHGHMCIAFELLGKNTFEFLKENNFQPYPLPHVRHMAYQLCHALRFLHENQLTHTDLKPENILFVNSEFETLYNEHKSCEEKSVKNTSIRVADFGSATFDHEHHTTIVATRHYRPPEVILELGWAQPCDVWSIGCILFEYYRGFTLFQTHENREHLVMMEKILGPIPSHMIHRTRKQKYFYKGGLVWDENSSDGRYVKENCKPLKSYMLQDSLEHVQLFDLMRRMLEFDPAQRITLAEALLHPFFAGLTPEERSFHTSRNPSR

PAK1 = PAK1 (Homo sapiens, UniProt Q13153); assay: biochemical; details: read-out: % inhib
Sequence of PAK1 (Q13153 whole entry): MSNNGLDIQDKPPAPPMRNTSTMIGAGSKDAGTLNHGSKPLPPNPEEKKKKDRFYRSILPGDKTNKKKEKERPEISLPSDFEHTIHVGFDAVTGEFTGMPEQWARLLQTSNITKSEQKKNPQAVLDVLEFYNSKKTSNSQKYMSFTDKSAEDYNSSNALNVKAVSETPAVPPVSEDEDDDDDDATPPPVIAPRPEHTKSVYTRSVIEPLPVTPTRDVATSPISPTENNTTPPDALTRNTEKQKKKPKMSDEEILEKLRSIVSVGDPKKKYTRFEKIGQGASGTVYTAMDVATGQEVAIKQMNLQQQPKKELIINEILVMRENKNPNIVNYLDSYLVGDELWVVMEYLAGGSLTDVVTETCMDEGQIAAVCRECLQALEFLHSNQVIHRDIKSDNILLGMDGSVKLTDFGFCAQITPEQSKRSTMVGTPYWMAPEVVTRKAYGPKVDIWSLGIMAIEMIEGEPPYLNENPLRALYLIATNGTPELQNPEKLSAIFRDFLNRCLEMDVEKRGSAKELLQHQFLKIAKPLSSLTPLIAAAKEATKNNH

TBK1 = TBK1 (Homo sapiens, UniProt Q9UHD2); assay: biochemical; details: read-out: % inhib
Sequence of TBK1 (Q9UHD2 whole entry, species assumed): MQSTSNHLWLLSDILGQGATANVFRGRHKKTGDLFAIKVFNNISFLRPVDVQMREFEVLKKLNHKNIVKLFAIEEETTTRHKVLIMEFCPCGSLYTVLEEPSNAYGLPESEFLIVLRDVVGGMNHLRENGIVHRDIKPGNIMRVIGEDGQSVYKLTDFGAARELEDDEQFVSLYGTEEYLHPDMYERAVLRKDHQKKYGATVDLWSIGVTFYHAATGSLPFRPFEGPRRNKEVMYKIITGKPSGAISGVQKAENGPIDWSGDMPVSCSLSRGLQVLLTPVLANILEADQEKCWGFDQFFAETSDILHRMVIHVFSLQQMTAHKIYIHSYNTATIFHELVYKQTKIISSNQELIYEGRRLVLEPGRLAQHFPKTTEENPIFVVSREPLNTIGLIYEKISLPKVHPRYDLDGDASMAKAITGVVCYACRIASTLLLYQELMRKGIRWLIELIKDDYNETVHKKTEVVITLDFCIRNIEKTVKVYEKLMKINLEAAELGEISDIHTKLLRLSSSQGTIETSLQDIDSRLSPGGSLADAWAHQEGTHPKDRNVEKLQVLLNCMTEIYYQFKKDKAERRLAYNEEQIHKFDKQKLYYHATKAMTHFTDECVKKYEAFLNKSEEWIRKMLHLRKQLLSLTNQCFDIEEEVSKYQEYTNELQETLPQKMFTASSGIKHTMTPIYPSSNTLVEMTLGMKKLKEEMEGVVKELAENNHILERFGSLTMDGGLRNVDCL

With `CC1(C)OCCn2c1nc1c(N3CCOCC3)nc(-c3cnc(N)nc3)nc12` [GDC-0084, 5-(6,6-dimethyl-4-morpholino-8,9-dihydro-6H-[1,4]oxazino[3,4-e]purin-2-yl)pyrimidin-2-amine] the fraction unbound [1] was 0.25, the MTD [2] was 45 mg and the “patients with metabolic partial response on FDG-PET” value (high-grade gliomas [3]) was “five”. The “patients with metabolic partial response on FDG-PET, percent” value (high-grade gliomas [3]) was 18.5%, the “best overall response of progressive disease, patients” value (high-grade gliomas [4]) was 26 patients and the “best overall response of progressive disease, percent” value (high-grade gliomas [4]) was 55.3%. For the same compound, the “best overall response stable disease, patients” value (high-grade gliomas [4]) was 19 patients, the “best overall response stable disease, percent” value (high-grade gliomas [4]) was 40.4% and the Solubility ([5]; DMF) was 0.9 wt. %. For the same compound, the Solubility ([5]; DMF/HOAc/H2O 67:24:9 by volume) was 0.3 wt. %, the Solubility ([5]; EtOH) was 0.1 wt. % and the Solubility ([5]; EtOH/HOAc/H2O 67:24:9 by volume) was 1 wt. %. For the same compound, the Solubility ([5]; HOAc) was 2.8 wt. %, the Solubility ([5]; HOAc/HOAc/H2O 67:24:9 by volume) was 2.1 wt. % and the Solubility ([5]; MeOH) was 0.2 wt. %. For the same compound, the Solubility ([5]; MeOH/HOAc/H2O 67:24:9 by volume) was 0.4 wt. %, the Solubility ([5]; MeTHF) was 0.3 wt. % and the Solubility ([5]; MeTHF/HOAc/H2O 67:24:9 by volume) was 2.7 wt. %. The Solubility ([5]; PhMe) was 0.1 wt. %, the Solubility ([5]; THF) was 0.7 wt. % and the Solubility ([5]; THF/HOAc/H2O 67:24:9 by volume) was 3.7 wt. %. The Solubility ([5]; Toluene/HOAc/H2O 67:24:9 by volume) was 3.8 wt. %, the Solubility ([5]; i-BuOH) was 0.1 wt. % and the Solubility ([5]; i-BuOHHOAcH2O 67:24:9 by volume) was 2.1 wt. %. For the same compound, the Solubility ([5]; n-BuOH) was 0.1 wt. %, the Solubility ([5]; n-BuOH/HOAc/H2O 67:24:9 by volume) was 2.4 wt. % and the Solubility ([5]; n-PrOH) was 0.1 wt. %. It also gave a Solubility ([5]; n-PrOH/HOAc/H2O 67:24:9 by volume) of 1.8 wt. %, an inhibition at 1 µM (CDK9/cyclinT1) of -0.9% and an inhibition at 1 µM (CLK3) of 7%. The inhibition at 1 µM (PAK1) was 7% and the inhibition at 1 µM (TBK1) was 4%.
